In patent US9365551B2, “2-(benzyloxy) benzamides as LRRK2 kinase inhibitors” (Glaxo Group Limited, priority 2010, dated 2016):

Columns and labels:
[1] = target: T1, 6His-Tev-LRRK2 (1326-2527) (Homo sapiens, UniProt Q5S007); test: LRRK2 peptide substrate assay; assay type: biochemical; details: mean pIC50 of multiple test results; stated as threshold; read-out: pIC50 in the LRRK2 peptide substrate assay (bounds) (converted)
T1 construct: A LRRK2 cDNA encoding residues 1326-2527 was received from Dundee University; made in house; host or cells: Spodoptera frugiperda (Sf9) insect cells, baculovirus (pFB-HTb)
T1 sequence (Q5S007 1326-2527): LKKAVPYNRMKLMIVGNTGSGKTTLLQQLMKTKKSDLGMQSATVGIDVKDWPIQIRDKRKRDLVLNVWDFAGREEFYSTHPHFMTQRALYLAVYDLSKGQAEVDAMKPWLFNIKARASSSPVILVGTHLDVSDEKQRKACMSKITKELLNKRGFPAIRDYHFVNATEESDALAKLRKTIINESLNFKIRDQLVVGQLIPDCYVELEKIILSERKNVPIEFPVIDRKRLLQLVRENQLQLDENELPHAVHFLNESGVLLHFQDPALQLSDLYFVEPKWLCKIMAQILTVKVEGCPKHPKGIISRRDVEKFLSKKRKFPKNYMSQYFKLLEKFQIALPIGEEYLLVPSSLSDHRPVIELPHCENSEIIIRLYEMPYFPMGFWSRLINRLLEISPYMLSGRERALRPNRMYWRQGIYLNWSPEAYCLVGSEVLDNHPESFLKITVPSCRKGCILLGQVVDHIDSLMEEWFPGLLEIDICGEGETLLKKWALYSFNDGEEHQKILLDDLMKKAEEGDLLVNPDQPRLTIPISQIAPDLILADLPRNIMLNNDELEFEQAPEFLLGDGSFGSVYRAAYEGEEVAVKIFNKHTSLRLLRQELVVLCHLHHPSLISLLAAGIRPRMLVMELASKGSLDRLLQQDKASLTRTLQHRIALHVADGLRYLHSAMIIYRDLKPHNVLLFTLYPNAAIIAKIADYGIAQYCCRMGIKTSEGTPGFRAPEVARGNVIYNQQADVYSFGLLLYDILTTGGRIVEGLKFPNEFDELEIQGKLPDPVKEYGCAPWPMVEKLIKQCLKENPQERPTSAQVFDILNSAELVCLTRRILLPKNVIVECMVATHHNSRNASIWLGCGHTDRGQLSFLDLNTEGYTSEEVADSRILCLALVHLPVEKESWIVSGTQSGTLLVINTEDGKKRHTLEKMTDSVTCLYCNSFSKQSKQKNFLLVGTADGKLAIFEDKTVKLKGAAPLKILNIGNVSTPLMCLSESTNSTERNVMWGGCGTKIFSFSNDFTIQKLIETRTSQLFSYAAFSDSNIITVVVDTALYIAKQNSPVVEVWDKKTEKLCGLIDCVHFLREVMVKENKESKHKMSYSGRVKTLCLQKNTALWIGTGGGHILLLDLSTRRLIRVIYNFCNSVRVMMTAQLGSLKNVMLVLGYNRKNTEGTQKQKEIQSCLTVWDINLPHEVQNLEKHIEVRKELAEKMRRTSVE
Procedure, shortened: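 Compound (1:4 series, top 30 μM final) preincubated 30 min at RT with the enzyme solution (80 nM) in pH 7.2 Hepes, 10 mM MgCl2 buffer. Reaction was started with substrate solution (2 μM Biotin-LRRKtide, ATP at Km) and run 1–2 h at RT. Phospho-peptide detected by TR-FRET (Eu/APC, 665/620 nm) after EDTA stop.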

[2] = target: T1, 6His-Tev-LRRK2 (1326-2527); test: LRRK2 AlphaScreen desensitised protein substrate assay; assay type: biochemical; details: mean pIC50 of multiple test results; stated as threshold; read-out: pIC50 in the LRRK2 alphascreen desensitised protein substrate assay (bounds) (converted)
Procedure, shortened: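 Compounds (1:4 series, top final 30 μM) were preincubated 30 min at room temperature with 6His-Tev-LRRK2 (1326-2527) solution (80 nM) in Hepes pH 7.2, 10 mM MgCl2. Substrate solution held 200 nM GST-PS-Moesin (400-577) and 2 mM ATP, and the reaction ran 20 min. Phospho-Moesin Thr558 was read by AlphaLisa antibody-bead detection after 2 h.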

CN1CCN(C(=O)c2cc(OCc3ccccc3)c(C(=O)Nc3cccnn3)cc2Cl)CC1 [Example 56, 2-(benzyloxy)-5-chloro-4-(4-methylpiperazine-1-carbonyl)-N-(pyridazin-3-yl)benzamide]
IC50 [1]: ≤ 0.1 µM | IC50 [2]: ≤ 25.1 µM

CN1CCN(C(=O)c2cc(OCc3ccccc3)c(C(=O)Nc3ccccc3)cc2Cl)CC1 [Example 57, 2-(benzyloxy)-5-chloro-4-(4-methylpiperazine-1-carbonyl)-N-phenylbenzamide]
IC50 [1]: ≤ 0.1 µM | IC50 [2]: ≤ 25.1 µM
